One assay addresses Protein Wnt-3a (Mus musculus, UniProt P27467). Briefly: Wnt3a-driven reporter signaling inhibition, dose response, selectivity assay for Gli-SUFU antagonist project, Wnt-LIGHT cells, luminescence (AID 651570).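 Further: Wnt-LIGHT reporter cells stimulated with conditioned medium from Wnt3a-producing cells.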 It counts as functional. The conditions noted are these: read-out: IC50_Mean.
The next assay relates to INS1. The experiment in a line: beta cell apoptosis inhibitors, cytokine rescue, dose response, luminescence, retest (AID 449756).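 Further: cell death triggered by IL-1 beta plus TNF-alpha plus IFN-gamma mixture; protective hits raise ATP signal compared with cytokine alone wells.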 It counts as functional, cell-based. The settings on record: Rattus norvegicus.
Assay [1] can be described thus: HEp-2 cell cytotoxicity, dose response, cytotoxicity control for RSV inhibitor project, HTS (AID 2410). It counts as functional. The conditions noted are these: human respiratory syncytial virus.
Assay [2] is described as follows: cytotoxicity in OV-90 ovarian cancer cells, dose response, PAX8 inhibitor project, cell-based, plate reader, dry powder, SA8 (AID 743149). The class given is functional.
In assay [3] the target is T1, Microphthalmia-associated transcription factor (Homo sapiens, UniProt O75030).
T1 sequence (O75030 whole entry): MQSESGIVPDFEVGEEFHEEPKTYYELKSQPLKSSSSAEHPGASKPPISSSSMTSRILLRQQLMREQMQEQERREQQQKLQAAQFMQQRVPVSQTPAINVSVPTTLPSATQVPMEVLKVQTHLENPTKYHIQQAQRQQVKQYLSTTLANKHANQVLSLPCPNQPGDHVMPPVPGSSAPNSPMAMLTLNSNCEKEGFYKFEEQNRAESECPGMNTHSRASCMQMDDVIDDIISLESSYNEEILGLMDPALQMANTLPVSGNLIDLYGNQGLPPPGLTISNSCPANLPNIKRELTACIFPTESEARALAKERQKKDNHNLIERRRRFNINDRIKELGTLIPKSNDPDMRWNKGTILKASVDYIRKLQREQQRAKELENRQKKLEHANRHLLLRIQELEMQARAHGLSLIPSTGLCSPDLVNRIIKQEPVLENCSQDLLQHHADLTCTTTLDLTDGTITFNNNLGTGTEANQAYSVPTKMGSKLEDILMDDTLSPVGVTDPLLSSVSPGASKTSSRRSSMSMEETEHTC
The experiment in a line: TRPM1 promoter luciferase signal decrease, dose response, MITF inhibitor project, cell-based, SK-MEL-5, cherry-picked, set 3 (AID 493073).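 Further: SK-MEL-5 melanoma cells with luciferase driven by the MITF target TRPM1 promoter.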 The class given is functional.

Assay [4] can be described thus: PAX2 cell-based inhibition, dose response, selectivity assay for PAX8 inhibitor project, plate reader, dry powder samples (AID 743048).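 Further: HEK293 cells carrying a WT1 promoter luciferase reporter driven by expressed Pax2; potency is for inhibition of Pax2 driven reporter signal.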 It counts as functional.
The target of another assay is Interleukin-8 (Homo sapiens, UniProt P10145). Briefly: Dose Response confirmation of uHTS small molecule hits for cystic fibrosis induced NFkb Inhibitors in a PAF-induced IL8 counterscreen. It counts as functional. The settings on record: read-out: IC50_Mean.
Sequence of Interleukin-8 (P10145 whole entry): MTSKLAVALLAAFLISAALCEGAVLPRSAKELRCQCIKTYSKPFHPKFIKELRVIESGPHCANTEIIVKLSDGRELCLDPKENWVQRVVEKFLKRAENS
The target in another assay is Paired box protein Pax-8 (Homo sapiens, UniProt Q06710). The experiment in a line: inhibitors of PAX8-driven TPO luciferase reporter, dose response, RMG-I cells, cherry-pick (AID 687027).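 Further: luciferase reporter driven by Pax8 target thyroperoxidase promoter measured by SteadyGlo luminescence.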 It counts as functional, cell-based. Background: Reporter assays use an easily measured gene product as a stand-in for the process of interest.
Sequence of Paired box protein Pax-8 (Q06710 whole entry): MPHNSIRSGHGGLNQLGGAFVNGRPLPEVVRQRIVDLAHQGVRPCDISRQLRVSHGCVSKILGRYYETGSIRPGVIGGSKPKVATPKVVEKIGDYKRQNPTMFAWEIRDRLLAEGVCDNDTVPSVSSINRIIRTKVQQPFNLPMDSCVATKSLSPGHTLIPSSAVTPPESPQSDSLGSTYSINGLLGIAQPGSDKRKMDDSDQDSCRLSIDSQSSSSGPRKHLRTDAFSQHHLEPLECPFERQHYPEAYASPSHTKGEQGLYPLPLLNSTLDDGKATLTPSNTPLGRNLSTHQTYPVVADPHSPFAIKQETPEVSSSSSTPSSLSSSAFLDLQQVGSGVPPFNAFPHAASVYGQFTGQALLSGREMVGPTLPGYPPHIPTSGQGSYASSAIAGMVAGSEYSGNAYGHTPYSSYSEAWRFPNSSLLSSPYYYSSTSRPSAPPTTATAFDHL
Assay [5] is described as follows: IGROV1 ovarian cancer cell cytotoxicity, dose response, PAX8 inhibitor project, plate reader, dry powder samples (AID 743043). The class given is functional, cell-based. The settings on record: IGROV-1.
The next assay has as its system Vero. Briefly: host cell cytotoxicity of antiviral hits, dose response, cytotoxicity control for West Nile virus antiviral project, secondary assay (AID 1650). The class given is functional. The conditions noted are these: Chlorocebus sabaeus.
Assay [6] is described as follows: cytotoxicity in OVCAR4 cells, dose response, cytotoxicity control for PAX8 inhibitor project, cell-based, plate reader, dry powder, SA11 (AID 743150). It counts as functional. The conditions noted are these: OVCAR-4.
The nature of assay [7]: PAX5 activity inhibitors, dose response, selectivity assay for PAX8 inhibitor project, cell-based, plate reader, dry powder samples (AID 743047).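 Further: HEK293 cells carrying a Pax5 driven CD19 promoter luciferase reporter; potency of inhibitors that lower reporter luminescence.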 It counts as functional.
Assay [8] can be described thus: cytotoxicity dependent on PAX8, dose response, cell-based, plate reader, dry powder (AID 743049). It counts as functional.
Assay [9] is described as follows: cytotoxicity in COV434 cells, dose response, cytotoxicity control for PAX8 inhibitor project, cell-based, plate reader, dry powder, SA7 (AID 743145). It counts as functional.
Assay [10] in a line: ARNT/TACC3 interaction disruptors, potency, confirmation, biochemical, AlphaScreen, cherry-picked samples (AID 651703).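 Further: His-tagged ARNT PAS-B domain paired with GST-TACC3 E629A dimer coactivator fragment; potency of inhibitors that break up the complex and lower AlphaScreen signal.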 It counts as functional, Homo sapiens. On the technique in general: Bead proximity is the source of the signal in Alpha formats.

Activity calls are given as the source filed them.

As a reminder, the AC50 is the midpoint of the concentration-response curve, whichever way the signal moves. One may read the CC50 as the concentration at which the toxic effect on the cells reaches its halfway point.

Sequence of Protein Wnt-3a (P27467 whole entry): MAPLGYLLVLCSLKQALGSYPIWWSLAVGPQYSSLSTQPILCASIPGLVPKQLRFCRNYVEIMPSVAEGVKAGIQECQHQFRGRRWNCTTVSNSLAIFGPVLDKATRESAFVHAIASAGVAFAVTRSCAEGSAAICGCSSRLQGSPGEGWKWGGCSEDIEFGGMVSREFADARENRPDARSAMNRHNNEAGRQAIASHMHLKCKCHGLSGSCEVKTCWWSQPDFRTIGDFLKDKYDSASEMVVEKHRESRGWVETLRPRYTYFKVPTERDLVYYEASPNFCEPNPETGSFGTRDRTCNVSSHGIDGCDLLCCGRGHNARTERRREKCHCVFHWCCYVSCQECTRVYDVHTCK

Consider `Cc1ccc(Cl)cc1N1CCN(C(=O)CSc2nnc3n2C(C)(C)Cc2ccccc2-3)CC1`, for which, on Protein Wnt-3a, the IC50 is 4.43 µM (active). Besides, the AC50 in the assay with INS1 was 5.01 µM (active). In assay [1], the CC50 was < 0.1 µM (active).

`Cc1ccc(S(=O)(=O)CC(CN2CCCCC2)N2CCCCC2)cc1` (stereo not given): the AC50 in assay [2] was 15.7 µM (active); in assay [3] it was 8.1 µM (active); in assay [4], > 100 µM (inactive); at Paired box protein Pax-8 it was 4.72 µM (active); in [5] it was 46.5 µM (active); in [6], 80.7 µM (active). Moreover, the AC50 in assay [7] was 22.9 µM (active); in [8] it was 17.1 µM (active); in assay [9], 9.72 µM (active). Also, the IC50 on Interleukin-8 was 4.55 µM (active). The CC50 with Vero is 8.81 µM (active).

Turning to `Cn1ccnc1-c1nc2ccccc2nc1O`, in assay [10], the AC50 was 71.9 µM (active).

Source of the values: ChEMBL document CHEMBL1201862, “PubChem BioAssay data set” (2004).
